Broadly, the AC50 is the midpoint of the concentration-response curve, whichever way the signal moves. Read a high AC50 as activity only at high concentration.

Some results are limits rather than exact numbers.

One experiment has as its system TFEB. Briefly: TFEB nuclear translocation assay, HeLa wt cells. The class given is cell-based. The settings on record: 2 hrs compound treatment, Table 1 does not say HeLa wt or TRPML1 KO. In a few lines: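 Using 20× epifluorescence of fixed, anti-TFEB-stained HeLa wt cells treated 2 hrs with compound, nuclear versus perinuclear ring intensity was quantified over four fields per well, yielding AC50 values.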
`CC(c1cccc(F)c1N1CCC(C)(C(F)F)CC1)S(=O)(=O)c1ccc(S(=N)(=O)N(C)C)cc1` (single isomer, unassigned) [Compound A-974, 4-((1-(2-(4-(difluoromethyl)-4-methylpiperidin-1-yl)-3-fluorophenyl)ethyl)sulfonyl)-N,N-dimethylbenzenesulfonimidamide] registered a concentration at half-maximal activity (AC50) of at most 2 µM. The same measure, in the same setting: then `COCC1(C)CCN(c2ccccc2C(C)S(=O)(=O)c2ccc(S(=O)(=O)N(C)C)cc2)CC1` (single isomer, unassigned; enantiomer 2) [Compound A-699, 4-((1-(2-(4-(methoxymethyl)-4-methylpiperidin-1-yl)phenyl)ethyl)sulfonyl)-N,N-dimethylbenzenesulfonamide, enantiomer 2], with 2.01 to 8 µM.

`C[C@@H](c1cccc(F)c1N1CCCCC1)S(=O)(=O)c1ccc(S(=N)(=O)N(C)C)cc1` (single isomer, unassigned) [Compound A-930] yielded an AC50 of 2.01 to 8 µM.

As to `CC(c1cccc(F)c1N1CCOCC1)S(=O)(=O)c1ccc2c(c1)CCS2(=O)=O` (single isomer, unassigned) [Compound A-967, 5-((1-(3-fluoro-2-morpholinophenyl)ethyl)sulfonyl)-2,3-dihydrobenzo[b]thiophene 1,1-dioxide], the AC50 is at least 10 µM.

Staying with this experiment, now noted: Homo sapiens, HeLa, 2 h, 2 hrs compound treatment, Table 1 does not say HeLa wt or TRPML1 KO.
The compound `CN(C)S(=O)(=O)c1ccc(S(=O)(=O)Nc2ccccc2N2CCC(c3ccc(Cl)cc3F)CC2)c(F)c1` [Compound A-149, N4-{2-[4-(4-chloro-2-fluorophenyl)piperidin-1-yl]phenyl}-3-fluoro-N1,N1-dimethylbenzene-1,4-disulfonamide] displayed a half-maximal activity concentration (AC50) of at most 2 µM.

In turn, `CN(C)S(=O)(=O)c1ccc(S(=O)(=O)Nc2cccc(F)c2N2CCC3(CCNC3=O)CC2)cc1` [Compound A-792, N4-(3-fluoro-2-{1-oxo-2,8-diazaspiro[4.5]decan-8-yl}phenyl)-N1,N1-dimethylbenzene-1,4-disulfonamide] displayed an AC50 of at least 10 µM. Still for that read-out and setting: then `CN(C)S(=O)(=O)c1ccc(S(=O)(=O)Nc2ccccc2N2CCN(C(=O)C3(C)CC(F)(F)C3)CC2)cc1` [Compound A-478, N4-{2-[4-(3,3-difluoro-1-methylcyclobutanecarbonyl)piperazin-1-yl]phenyl}-N1,N1-dimethylbenzene-1,4-disulfonamide], with 2.01 to 8 µM. Regarding `O=S(=O)(Nc1cccc(Cl)c1N1CCOCC1)c1cccc(C2CC2)c1` [Compound A-390, N-[3-chloro-2-(morpholin-4-yl)phenyl]-3-cyclopropylbenzene-1-sulfonamide], the AC50 is at most 2 µM.

On to `C[C@@H]1CN(CC2CCN(c3c(F)cccc3[C@H](C)S(=O)(=O)c3ccc(S(=O)(=O)N(C)C)cc3)CC2)C[C@H](C)O1` [Compound A-783, 4-[(1S)-1-[2-(4-{[(2R,6S)-2,6-dimethylmorpholin-4-yl]methyl}piperidin-1-yl)-3-fluorophenyl]ethanesulfonyl]-N,N-dimethylbenzene-1-sulfonamide], for which the AC50 is at most 2 µM. On the same count and under the same terms, next, `CN1CC2(CCN(c3ccccc3NS(=O)(=O)c3ccc(S(C)(=O)=O)cc3)CC2)c2ccc(F)cc21` [Compound A-251, N-(2-{6-fluoro-1-methyl-1,2-dihydrospiro[indole-3,4′-piperidin]-1′-yl}phenyl)-4-methanesulfonylbenzene-1-sulfonamide]: at most 2 µM.

`CN(C)S(=O)(=O)c1ccc(S(=O)(=O)Cc2ccccc2N2CCN(Cc3ccccc3)CC2)cc1` [Compound A-406, 4-((2-(4-benzylpiperazin-1-yl)benzyl)sulfonyl)-N,N-dimethylbenzenesulfonamide] registered a half-maximal activity concentration (AC50) of 2.01 to 8 µM.

With `CC1(C)CC2(CCN(c3ccccc3NS(=O)(=O)c3ccc4c(c3)OC(C)(C)O4)CC2)CO1` [Compound A-704, N-(2-{3,3-dimethyl-2-oxa-8-azaspiro[4.5]decan-8-yl}phenyl)-2,2-dimethyl-2H-1,3-benzodioxole-5-sulfonamide], the AC50 was at most 2 µM. Regarding `CN(C)S(=O)(=O)c1ccc(S(=O)(=O)Nc2cccc(N3CCC(c4ccc(Cl)cc4F)CC3)c2)cc1` [Compound A-46, N4-{3-[4-(4-chloro-2-fluorophenyl)piperidin-1-yl]phenyl}-N1,N1-dimethylbenzene-1,4-disulfonamide], the half-maximal activity concentration (AC50) is at least 10 µM.

In turn, `CC(c1cccc(F)c1N1CCC(CN2C[C@@H](C)C(F)(F)[C@@H](C)C2)CC1)S(=O)(=O)c1ccc(S(=O)(=O)N(C)C)cc1` (stereo partly drawn) [Compound A-970, 4-{1-[2-(4-{[(3R,5S)-4,4-difluoro-3,5-dimethylpiperidin-1-yl]methyl}piperidin-1-yl)-3-fluorophenyl]ethanesulfonyl}-N,N-dimethylbenzene-1-sulfonamide] yielded an AC50 of at most 2 µM.

With `COC(C)(C)C(=O)N1CCN(c2ccccc2NS(=O)(=O)c2ccc(S(=O)(=O)N(C)C)cc2)CC1` [Compound A-431, N4-{2-[4-(2-methoxy-2-methylpropanoyl)piperazin-1-yl]phenyl}-N1,N1-dimethylbenzene-1,4-disulfonamide], the AC50 was 2.01 to 8 µM. In turn, `CCC(C1CCN(c2c(F)cccc2NS(=O)(=O)c2ccc(S(=N)(=O)N(C)C)cc2)CC1)N1CCOCC1` (centres unmarked) [Compound A-857, 4-[(3-fluoro-2-{4-[1-(morpholin-4-yl)propyl]piperidin-1-yl}phenyl)sulfamoyl]-N,N-dimethylbenzene-1-sulfonoimidamide] displayed an AC50 of at most 2 µM. Still for that read-out and setting: next, `Cc1ccc(S(=O)(=O)Nc2cccc(F)c2N2CCC(CN3C[C@@H](C)O[C@@H](C)C3)CC2)cc1` [Compound A-771, N-[2-(4-{[(2R,6S)-2,6-dimethylmorpholin-4-yl]methyl}piperidin-1-yl)-3-fluorophenyl]-4-methylbenzene-1-sulfonamide]: at most 2 µM; `CN(C)S(=O)(=O)c1ccc(S(=O)(=O)Nc2ccccc2N2CCN(C3CC3)CC2)cc1` [Compound A-52, N4-[2-(4-cyclopropylpiperazin-1-yl)phenyl]-N1,N1-dimethylbenzene-1,4-disulfonamide]: at most 2 µM; `CN1CC2(CCN(c3ccccc3NS(=O)(=O)c3ccc(SC(C)(C)C)cc3)CC2)c2ccc(F)cc21` [Compound A-517, 4-(tert-butylsulfanyl)-N-(2-{6-fluoro-1-methyl-1,2-dihydrospiro[indole-3,4′-piperidin]-1′-yl}phenyl)benzene-1-sulfonamide]: 2.01 to 8 µM. On the same count and under the same terms, then `O=S(=O)(Nc1ccccc1N1CCC(c2ccc(Cl)cc2F)CC1)c1cccc(F)c1F` [Compound A-97, N-{2-[4-(4-chloro-2-fluorophenyl)piperidin-1-yl]phenyl}-2,3-difluorobenzene-1-sulfonamide], with at least 10 µM. Same read-out and setting: next, `CN(C)S(=O)(=O)c1ccc(S(=O)(=O)Nc2cccc(Cl)c2N2CCN(C(=O)C(C)(C)C)CC2)cc1` [Compound A-352, N4-{3-chloro-2-[4-(2,2-dimethylpropanoyl)piperazin-1-yl]phenyl}-N1,N1-dimethylbenzene-1,4-disulfonamide]: 2.01 to 8 µM. For `O=S(=O)(Nc1ccccc1N1CCC(c2ccc(Cl)cc2F)CC1)c1ccc(Cl)cc1` [Compound A-73, 4-chloro-N-{2-[4-(4-chloro-2-fluorophenyl)piperidin-1-yl]phenyl}benzene-1-sulfonamide], the AC50 is at most 2 µM.

The compound `CCS(=O)(=O)c1ccc(S(=O)(=O)Nc2ccccc2N2CCN(C(=O)C(C)(C)C)CC2)cc1` [Compound A-351, N-{2-[4-(2,2-dimethylpropanoyl)piperazin-1-yl]phenyl}-4-(ethanesulfonyl)benzene-1-sulfonamide] had an AC50 of at least 10 µM.

Source of the values: patent publication US20230104936A1, “TRPML MODULATORS” (Casma Therapeutics, Inc., priority 2019, published 2023).
